# From publication PMC11477294, “In Vitro Profiling of the Antiviral Peptide TAT-I24” (International Journal of Molecular Sciences, 2024)
# Where a SMILES comes first, the peptide text is derived from it.
# Experiments:
# [1] = tested on: baculovirus expressing luciferase under the control of the CMV promoter; type: cell-based; conditions: luciferase reporter gene expression in HEK293 cells transduced with baculovirus-luc, MOI 5, 24 h post-infection; 1:3 peptide dilution series; non-linear regression; n = 8
# Experimental: (§1) A baculovirus expressing luciferase under the control of the CMV promoter has been described previously. HEK293 cells were seeded at a density of 2 × 10^4 cells/100 µL per well in 96-well plates (Sarstedt, Germany). On the next day, cells were treated with a 1:3 dilution series of peptides and, without further pre-incubation, subsequently infected with baculovirus–luc at a multiplicity of infection (MOI) of 5. Cells were lysed 24 h post-infection using 20 µL Cell Culture Lysis Reagent (Promega, Mannheim, Germany). From the lysates, 10 µL was transferred to white 96-well plates, and luciferase was recorded using a luciferase assay system and a GloMax®-Multi Detection System (Promega, Mannheim, Germany).
# [2] = tested on: MCMV strain delm157-luc rep; type: cell-based, mouse cytomegalovirus; conditions: luciferase reporter gene expression in NIH/3T3 cells infected with replication-competent MCMV, MOI 0.5, 72 h post-infection; 1:3 dilution series; non-linear regression; n = 9
# Experimental: NIH/3T3 cells were seeded at a density of 2 × 10^4 cells/100 µL per well in a 96-well plate (Sarstedt, Germany) and allowed to attach overnight. On the next day, cells were treated with a 1:3 dilutions series of peptides and, without further pre-incubation, subsequently infected with the MCMV strain delm157-luc rep. The MCMV stock was prepared and quantified as previously described. The virus (MOI 0.5 for luc assays; for other assays, see the specific descriptions) was adsorbed to cells with the aid of centrifugal enhancement twice at 800× g for 15 min at room temperature and incubated at 37 °C for the indicated times. For the luciferase assays, the infected cells were lysed 72 h post-infection using 20 µL Cell Culture Lysis Reagent (Promega, Mannheim, Germany). From the lysates, 10 µL was transferred to white 96-well plates, and luciferase was recorded using a Luciferase Assay System and a GloMax®-Multi Detection System (Promega, Mannheim, Germany).
# human PBMCs = test: LPS-induced cytokine release in PBMCs (ELISA); type: cell-based; conditions: three peptide concentrations, 0.25 µg/mL LPS, 24 h, duplicate, versus control without peptides
# Experimental: Isolation of PBMCs was performed by adding 3 mL blood on a 3 mL layer of Histopaque-1077 (Sigma Aldrich, Schnelldorf, Germany) and centrifuged at 400× g for 30 min at room temperature with the lowest brake and acceleration settings. After centrifugation, plasma was aspirated and the PBMC layer was transferred to a 15 mL conical centrifugation tube. Cells were resuspended in 10 mL PBS, followed by centrifugation at 250× g for 10 min. The cell pellet was resuspended in 5 mL PBS, followed by centrifugation at 250× g for 10 min for a total of three times. Finally, the pellet was resuspended in 1 mL cell culture medium supplemented with 10% FCS. Cells were then seeded in a 48-well plate at 2.5 × 10^5 cells/125 µL per well, treated with 125 µL peptide dilutions in the absence and presence of 0.25 µg/mL lipopolysaccharide (LPS) from Escherichia coli (Sigma-Aldrich, Schnelldorf, Germany) and incubated at 37 °C for 24 h. Supernatants were then collected for subsequent analysis by ELISA.
# ELISA was performed using human tumor necrosis factor-α (TNF-α) and interleukin-6 (IL-6) ELISA MAX^TM De Luxe Sets from Biolegend (San Diego, CA, USA) according to the manufacturer’s instructions. Supernatants were diluted 1:5 for TNF-α and 1:500 for IL-6.
# DiO-labeled MCMV = test: Entry of DiO-labeled MCMV (microscopy); type: cell-based, mouse cytomegalovirus; conditions: 10 µM peptide, NIH/3T3 cells, 120 min post-infection, MOI approximately 5
# Experimental: DiO labeling was performed by incubation of MCMV (2 × 10^7 pfu) with 5 µL of Vybrant™ DiO Cell-Labeling Solution in 300 µL cell culture medium supplemented with 10% FCS for 20 min at 37 °C. After that, the virus was precipitated overnight at 4 °C by addition of 600 µL autoclaved solution of polyethylene glycol/sodium chloride (30% (w/v) PEG-8000 (Sigma Aldrich, Schnelldorf, Germany), 10.5% NaCl (w/v) in PBS, followed by centrifugation on the next day for one hour at 1600× g at 4 °C. Supernatants were discarded, and the precipitated virus was resuspended in 500 µL cell culture medium supplemented with 10% FCS, aliquoted and stored at −80 °C.
# NIH/3T3 cells were seeded at a density of 2 × 10^4 cells/250 µL per well in ibiTreat 8-well chambers (ibidi, Germany) and allowed to attach overnight at 37 °C. On the next day, cells were treated with peptides and infected with DiO-labeled MCMV corresponding to an MOI of approximately 5 with the aid of centrifugal enhancement, twice at 800× g for 15 min. After 2 h of incubation, cells were washed twice with PBS and fixed with 5% formaldehyde for 1 h at room temperature. Then, cells were stained with DAPI for 15 min, as described above. […]
# [3] = Peptide stability in PBS or PBS with 10% FCS, read out as antiviral activity; type: in vitro ADME; conditions: 48 h at 37 °C versus −20 °C, two independent incubations in duplicate
# Experimental: as §1
# NIH/3T3 cells were seeded at a density of 2 × 10^4 cells/100 µL per well in a 96-well plate (Sarstedt, Germany) and allowed to attach overnight. On the next day, cells were treated with a 1:3 dilutions series of peptides and, without further pre-incubation, subsequently infected with the MCMV strain delm157-luc rep. The MCMV stock was prepared and quantified as previously described. […] From the lysates, 10 µL was transferred to white 96-well plates, and luciferase was recorded using a Luciferase Assay System and a GloMax®-Multi Detection System (Promega, Mannheim, Germany). […]
# [4] = Oligomerization/aggregation by SDS-PAGE with Coomassie stain; type: physicochemical; conditions: 48 h at 37 °C in PBS or PBS with 10% FCS
# Experimental: For determination of peptide stability, 20 µg peptide was added to 50 µL PBS or PBS with 10% FCS and incubated for 48 h at 37 °C or stored at −20 °C. For non-reducing conditions, 4 µL peptide solution was mixed with 1 µL H2O and 5 µL Novex™ Tricine SDS Sample Buffer (2×) (ThermoFisher, Darmstadt, Germany). For reducing conditions, 4 µL peptide solution was mixed with 1 µL NuPAGE™ Sample Reducing Agent (10×) (Invitrogen by Thermo Fisher Scientific) and 5 µL Novex™ Tricine SDS Sample Buffer (2×). Samples were then heated to 85 °C for 10 min. A total of 10 µL was then loaded onto each well of 10–20% Novex™ Tricine, 1.0 mm, Mini Protein Gels (Invitrogen/ThermoFisher, Waltham, MA, USA) and run in 1× Novex™ Tricine SDS Running Buffer (Invitrogen/ThermoFisher, Waltham, MA, USA) for 90 min at 100 V. After electrophoresis, gels were fixed with 40% methanol and 10% acetic acid followed by staining with 0.1% Coomassie brilliant blue R250 (Sigma-Aldrich, Schnelldorf, Germany) in 40% methanol and 10% acetic acid for one hour and destaining using fixing solution.
compound,measurement,setting,value
CC(C)C[C@H](NC(=O)[C@H](CS)NC(=O)[C@H](CCC(N)=O)NC(=O)[C@@H]1CCCN1C(=O)[C@@H]1CCCN1C(=O)[C@H](CCCNC(=N)N)NC(=O)[C@H](CCCNC(=N)N)NC(=O)[C@H](CCCNC(=N)N)NC(=O)[C@H](CCC(N)=O)NC(=O)[C@H](CCCNC(=N)N)NC(=O)[C@H](CCCNC(=N)N)NC(=O)[C@H](CCCCN)NC(=O)[C@H](CCCCN)NC(=O)[C@H](CCCNC(=N)N)NC(=O)CN)C(=O)N[C@@H](C)C(=O)N[C@@H](Cc1ccccc1)C(=O)N[C@@H](Cc1ccc(O)cc1)C(=O)N[C@@H](C)C(=O)N[C@@H](CS)C(=O)N[C@@H](Cc1ccccc1)C(=O)N[C@@H](CS)C(=O)O [TAT-I24] (H-GRKKRRQRRRPPQCLAFYACFC-OH),IC50,[1],50 nM
same,IC50,[2],910 nM
same,LPS-induced IL-6 release,human PBMCs,No significant differences
same,LPS-induced TNF-α release,human PBMCs,No significant differences
same,organization of fluorescent signal of DiO-labeled MCMV in cells,DiO-labeled MCMV,less perinuclear organization and was more dispersed in the whole cytoplasm
same,antiviral activity after incubation of peptide with serum (serum stability),"[3]; 20 µg peptide in 50 µL PBS with 10% FCS, read-out baculovirus/HEK293 (24 h) and MCMV/NIH/3T3 (72 h) luciferase",slight reduction in antiviral activity
same,antiviral activity after incubation of peptide without serum,"[3]; 20 µg peptide in 50 µL PBS, read-out baculovirus/HEK293 and MCMV/NIH/3T3 luciferase",curve shaping for both peptides was altered
same,"oligomer formation, SDS-PAGE under reducing conditions","[4]; 10–20% Tricine gel, Coomassie Brilliant Blue stain",additional weak higher molecular weight smear around 45 kDa
same,"oligomer formation, SDS-PAGE under non-reducing conditions","[4]; SDS loading buffer without reducing agent, Coomassie stain",only faint bands of monomers
